Entries after “also recorded” stand apart in the source; their conditions may differ. Like-named read-outs stand apart in the source and are kept apart here.
Tests used:
HTLV-III/LAV [1] = conditions: cited from earlier work
[2] = Cytotoxicity to ATH8 cells cultured with the nucleoside (trypan blue viable cell count); type: cell-based; conditions: human
Protocol: (§1) ^b The percentage of cytotoxicity was determined by the following
(§2) 100 × [1 - (number of viable cells cultured in the presence of the
(§3) nucleoside)/(number of viable cells cultured alone)].
(§4) HTLV-III/LAV cytopathic effect assay was performed using ATH8 cells as previously described.* Briefly, 2×10^5 ATH8 cells were exposed to HTLV-IIIB virus (2,000 virus particles/cell) for 45 min after treatment with polybrene, resuspended in 2 ml of culture medium containing interleukin 2 in the presence or absence of various concentrations of compounds, and incubated in culture tubes at 37° C. in 5% CO2 /95% air humidifedd atmosphere. Control cells were treated similarly but were not exposed to the virus. At various time points on days 5 to 7 of culture, the total viable cells were counted in a hemocytometer by the trypan blue dye exclusion method.

HTLV-III/LAV [3] = conditions: in vitro, cited from earlier work
[4] = Penetration of the blood-brain barrier / entry into the central nervous system
T4^+ lymphocytes = conditions: 0.5 and 5.0 micromoles; cited from earlier work
[5] = water or body fluids; listed as ddA; cited from earlier work
HTLV-III/LAV [6] = experiment: HTLV-III/LAV cytopathic effect assay using ATH8 cells (protective effect); type: cell-based, HTLV-IIIB; conditions: for protection (in words): 200 micromolar; for doses required for protection (in words): relative to other dideoxy nucleosides / ddC 1; for protective / anti-HTLV-III activity (in words): in vitro
Protocol: ^a The percentage of protective effect of a nucleoside was determined
by the following formula:
100 × [(number of viable cells exposed to HTLVIII and cultured in
the presence of the nucleoside) - (number of viable cells exposed to
HTLVII I cultured in the absence of the nucleoside)]/[(number of viable
cells cultured alone) - (number of viable cells exposed to HTLVIII in the
absence of the nucleoside)].
as §4

ATH8 cells = experiment: Cytotoxicity to ATH8 cells cultured with the nucleoside (trypan blue viable cell count); type: cell-based; conditions: in vitro
Protocol: as §1, §2, §3, §4

Basicity and protonation = type: physicochemical; conditions: relative to 2',3'-dideoxycytidine
mouse fibroblasts = conditions: Cancer Research, 1975, 35, 1547-1554; cited from earlier work
reverse transcriptase = conditions: cited from earlier work
[7] = 5 μM, ATH8 cells, read-out: Cytotoxicity (%)
[8] = 10 μM, ATH8 cells, read-out: Cytotoxicity (%)
[9] = 50 μM, ATH8 cells, read-out: Cytotoxicity (%)
[10] = 200 μM, ATH8 cells, read-out: Cytotoxicity (%)
[11] = 0.5 μM, ATH8 cells, read-out: Cytotoxicity (%)

Cc1cn([C@H]2C[C@H](N=[N+]=[N-])[C@@H](CO)O2)c(=O)[nH]c1=O [AZT, 3-azido-3'-deoxythymidine]
activity in test systems (in words) (HTLV-III/LAV [1]): a compound with activity in test systems

Nc1ccn([C@H]2CC[C@@H](CO)O2)c(=O)n1 [Compound 1, 2',3'-dideoxycytidine]
cytotoxicity at 0.05 µM ([2]; ath8 cells): 0% | cytotoxicity at 0.5 µM ([2]; ath8 cells): 0% | cytotoxicity at 5 µM ([2]; ath8 cells): 0% | cytotoxicity at 50 µM ([2]; ath8 cells): 30% | protection against the cytopathic effects of HTLV-III/LAV (in words) (HTLV-III/LAV [3]): most potent member of the group on the basis of molarity | protection against the cytopathic effects of HTLV-III/LAV (in words) (HTLV-III/LAV [3]; listed as ddC): potent protective agent; also recorded: very effective | penetration of the blood-brain barrier / entry into the central nervous system [4]: enter the central nervous system, very poorly | cytotoxicity (in words) (T4^+ lymphocytes): non-cytotoxic

Nc1ncnc2c1ncn2[C@H]1CC[C@@H](CO)O1 [Compound 2]
cytotoxicity at 1 µM ([2]; ATH8 cells): 0% | cytotoxicity at 5 µM [2, 7]: 6% | cytotoxicity at 10 µM [2, 8]: 0% | cytotoxicity at 50 µM [2, 9]: 0% | cytotoxicity at 100 µM ([2]; ATH8 cells): 0% | cytotoxicity at 200 µM [2, 10]: 0% | protection against the cytopathic effects of HTLV-III/LAV (in words) (HTLV-III/LAV [3]): very effective | solubility (in words) [5]: relatively insoluble; also recorded: not very soluble in water or body fluids

Cc1cn([C@H]2CC[C@@H](CO)O2)c(=O)[nH]c1=O [Compound 3, dideoxythymidine]
cytotoxicity at 10 µM [2, 8]: 8% | cytotoxicity at 50 µM [2, 9]: 8% | cytotoxicity at 100 µM ([2]; ATH8 cells): 13% | cytotoxicity at 200 µM [2, 10]: 6% | cytotoxicity at 500 µM ([2]; 500 μM, ATH8 cells): 30% | cytotoxicity at 1000 µM ([2]; 1000 μM, ATH8 cells): 40% | cytotoxicity at 2000 µM ([2]; 2000 μM, ATH8 cells): 53% | protection (in words) (HTLV-III/LAV [6]): considerable protection | inhibition at 10 µM (HTLV-III/LAV [6]; Human immunodeficiency virus 1, ATH-8, 10 μM, ATH8 cells, days 5 to 7): 3% | doses required for protection (in words) (HTLV-III/LAV [6]): unusually high doses

Nc1ncn([C@H]2CC[C@@H](CO)O2)c(=O)n1 [Compound 10, 2',3'-Dideoxy-5-azacytidine]
cytotoxicity at 1 µM ([2]; ATH8 cells): 13% | cytotoxicity at 10 µM [2, 8]: 19% | cytotoxicity at 50 µM [2, 9]: 62% | cytotoxicity (in words) (ATH8 cells): clearly more cytotoxic than ddC | anti-HTLV-III activity (in words) (HTLV-III/LAV [6]; 10 micromolar): significant anti-HTLV-III activity

Cc1cn([C@H]2CC[C@@H](CO)O2)c(=O)nc1N [Compound 15, 2',3'-Dideoxy-5-methylcytidine]
MCC ([2]; ath8 cells, read-out: concentration at which toxicity began to show): 100 µM | cytotoxicity at 2 µM ([2]; ATH8 cells): 23% | cytotoxicity at 10 µM [2, 8]: 27% | cytotoxicity at 100 µM ([2]; ATH8 cells): 44% | protective / anti-HTLV-III activity (in words) (HTLV-III/LAV [6]): devoid of protective effects

Cc1cn([C@H]2C[C@H](O)[C@@H](CO)O2)c(=O)nc1N [Compound 16, 5-methyl-2'-deoxycytidine]
cytotoxicity (in words) (ATH8 cells): neither protective nor cytotoxic | protective / anti-HTLV-III activity (in words) (HTLV-III/LAV [6]): neither protective nor cytotoxic

Nc1nc(=O)n([C@H]2CC[C@@H](CO)O2)cc1Br [Compound 17, 2',3'-Dideoxy-5-bromocytidine]
cytotoxicity at 1 µM ([2]; ATH8 cells): 14% | cytotoxicity at 10 µM [2, 8]: 14% | cytotoxicity at 30 µM ([2]; 30 μM, ATH8 cells): 2% | cytotoxicity at 200 µM [2, 10]: 0% | cytotoxicity (in words) (ATH8 cells): neither protective nor cytotoxic | protective / anti-HTLV-III activity (in words) (HTLV-III/LAV [6]): neither protective nor cytotoxic

Nc1nc(=O)n([C@H]2CC[C@@H](CO)O2)cc1F [Compound 22, 2',3'-Dideoxy-5-fluorocytidine]
cytotoxicity at 0.05 µM ([2]; 0.05 μM, ATH8 cells, read-out: Cytotoxicity (%)): 5% | cytotoxicity at 0.5 µM [2, 11]: 0% | cytotoxicity at 5 µM [2, 7]: 0% | cytotoxicity at 50 µM [2, 9]: 9% | inhibition at 0.05 µM (HTLV-III/LAV [6]; Human immunodeficiency virus 1, ATH-8, 0.05 μM, ATH8 cells, days 5 to 7): 5% | protective / anti-HTLV-III activity (in words) (HTLV-III/LAV [6]): as protective of HTLV-III infected cells as the lead compound 1 | basicity (Basicity and protonation): less basic than the parent compound | protonation (Basicity and protonation): less protonated than the parent compound | penetration of the blood-brain barrier / entry into the central nervous system [4]: penetrate the blood-brain barrier

Nc1ccn([C@H]2CC[C@@H](COP(=O)(O)O)O2)c(=O)n1 [Compound 24]
cytotoxicity at 0.5 µM [2, 11]: 0% | cytotoxicity at 2 µM ([2]; ATH8 cells): 7% | cytotoxicity at 10 µM [2, 8]: 0% | doses required for protection (in words) (HTLV-III/LAV [6]): significant protection was beginning to be observed at doses approximately ten times higher than were required for activity with ddC 1

Nc1ncnc2c1ncn2[C@H]1CC[C@@H](COP(=O)(O)O)O1 [Compound 25, 2',3'-dideoxyadenosine-5'-phosphate]
cytotoxicity at 1 µM ([2]; ATH8 cells): 2% | cytotoxicity at 5 µM [2, 7]: 10% | cytotoxicity at 10 µM [2, 8]: 6% | cytotoxicity at 50 µM [2, 9]: 4% | cytotoxicity at 100 µM ([2]; ATH8 cells): 0% | cytotoxicity at 200 µM [2, 10]: 5% | inhibition at 1 µM (HTLV-III/LAV [6]; Human immunodeficiency virus 1, ATH-8, 1 μM, ATH8 cells, days 5 to 7): 25% | protective / anti-HTLV-III activity (in words) (HTLV-III/LAV [6]): just as active as the nucleoside 2, over a wide concentration range | potency of ddAMP relative to ddA (in words) (HTLV-III/LAV [6]; low concentrations): not more potent at low concentrations | cytotoxicity in mouse fibroblasts (in words) (mouse fibroblasts): cytotoxic consequences | entry into mouse fibroblasts (mouse fibroblasts): appeared to enter mouse fibroblasts intact

Cc1cn([C@H]2CC[C@@H](COP(=O)(O)O)O2)c(=O)[nH]c1=O [Compound 26]
cytotoxicity at 10 µM ([2]; ath8 cells): 9% | cytotoxicity at 50 µM ([2]; ath8 cells): 9% | cytotoxicity at 200 µM ([2]; ath8 cells): 10% | protection (in words) (HTLV-III/LAV [6]): essentially inactive

O=C(O)P(=O)(O)O [foscarnet]
inhibition of reverse transcriptase (in words) (reverse transcriptase): inhibit this enzyme

NC(=O)c1ncn([C@@H]2O[C@H](CO)[C@@H](O)[C@H]2O)n1 [ribavirin]
inhibition of reverse transcriptase (in words) (reverse transcriptase): inhibit this enzyme

Cc1ccc(C(=O)Nc2ccc(S(=O)(=O)O)c3cc(S(=O)(=O)O)cc(S(=O)(=O)O)c23)cc1NC(=O)c1cccc(NC(=O)Nc2cccc(C(=O)Nc3cc(C(=O)Nc4ccc(S(=O)(=O)O)c5cc(S(=O)(=O)O)cc(S(=O)(=O)O)c45)ccc3C)c2)c1 [suramin]
inhibition of reverse transcriptase (in words) (reverse transcriptase): inhibit this enzyme

Source: patent publication US4788181A, “5-substituted-2',3'-dideoxycytidine compounds with anti-HTLV-III activity” (priority 1986, dated 1988)
